Where a SMILES comes first, the peptide text is derived from it. [ ]: non-standard residue; d: D form. ξ: configuration not given here. ξBip(2'-Et-4'-OMe) = CCc1cc(OC)ccc1-c1ccc(CC(N)C(=O)O)cc1; Arg(NO2) = N=C(NCCC[C@H](N)C(=O)O)N[N+](=O)[O-]; αMePhe(2,6-F2) = C[C@](N)(Cc1c(F)cccc1F)C(=O)O; ξαMePhe(2,6-F2) = CC(N)(Cc1c(F)cccc1F)C(=O)O; ξαMe(hhPhe) = CC(N)(CCCc1ccccc1)C(=O)O; ξαMePhe(2-F) = CC(N)(Cc1ccccc1F)C(=O)O; hhPhe = N[C@@H](CCCc1ccccc1)C(=O)O; hArg = N=C(N)NCCCC[C@H](N)C(=O)O; Cit = NC(=O)NCCC[C@H](N)C(=O)O; ξαMeF = CC(N)(Cc1ccccc1)C(=O)O; ξαMeM = CSCCC(C)(N)C(=O)O; Nle = CCCC[C@H](N)C(=O)O; Orn = NCCC[C@H](N)C(=O)O; ξαMeP = CC1(C(=O)O)CCCN1; Ac5c = NC1(C(=O)O)CCCC1; Ac3c = NC1(C(=O)O)CC1; Aib = CC(C)(N)C(=O)O

Common to all, as to assay type: in vitro ADME
Data set [1] can be described thus: Stability of peptides in simulated intestinal fluid (pH 7.5). As to conditions: pH 7.5; for half-life / half-life (t1/2) in simulated intestinal fluid: simulated gi fluid; for % degradation of peptides in 24 h when incubated with simulated intestinal fluid: 2 μM. The procedure, abridged: (§1)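 Peptides at 2 μM final incubated 0–24 h at 37 °C (50 mM triethanolamine-HCl, pH 7.8) in each matrix, matrix level set to degrade ~50% PTH(1-34) in 1 h; TFA-quenched, C18 HPLC at 206 nm with ESI-MS peak identification; percent degradation from peak areas at each time point.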

Data set [2] is described as follows: Stability of peptides in human plasma. As to conditions: human, plasma; for metabolised at 24 h, 2 μM: pH 7.8. The procedure, abridged: as §1
Data set [3] in a line: Stability of peptides in human liver microsomes. As to conditions: human, microsomes; for % degradation of peptides in 24 h when incubated with liver microsomes: 2 μM, pH 7.8. The procedure, abridged: as §1
(Microsomes from liver hold many membrane-bound enzymes, among them those of drug oxidation.)

Data set [4] is described as follows: Stability of peptides in simulated gastric fluid (pH 1.5; HCl, NaCl and Pepsin). As to conditions: pH 1.5; for % degradation of peptides in 24 h when incubated with simulated gastric fluid: 2 μM; for half-life / half-life (t1/2) in simulated gastric fluid: simulated gi fluid.

As a reminder, the half-life is the time needed for the level to fall by half in the phase considered. Read a high half-life as slow decline. In the case of `CCCC[C@H](NC(=O)C(C)(Cc1c(F)cccc1F)NC(=O)[C@H](CCC(N)=O)NC(=O)[C@@H](NC(=O)[C@H](CCC(=O)O)NC(=O)C1(NC(=O)[C@@H](NC(=O)C2(N)CCCC2)C(C)C)CC1)[C@@H](C)CC)C(=O)N[C@@H](Cc1c[nH]cn1)C(=O)N[C@@H](CCC(N)=O)C(=O)N[C@@H](CCCCNC(=N)N)C(=O)N[C@@H](C)C(=O)N[C@@H](CCCNC(=N)N[N+](=O)[O-])C(=O)NC(C)(Cc1c(F)cccc1F)C(=O)N[C@@H](CCCc1ccccc1)C(N)=O` (stereo partly drawn) [Seq. ID. 710] (H-[Ac5c]V[Ac3c]EIQ[ξαMePhe(2,6-F2)][Nle]HQ[hArg]A[Arg(NO2)][ξαMePhe(2,6-F2)][hhPhe]-NH2), in data set [1], the half-life was more than 24 h and the “% degradation of peptides in 24 h when incubated with simulated intestinal fluid” value (“% degradation … with simulated intestinal fluid” for short) is reported as 00%. In data set [2], the half-life is more than 24 h and the metabolised at 24 h, 2 μM is 0%. Further, in data set [3], the “half-life (t1/2) in liver microsomes” value was “(5) h” and the “% degradation of peptides in 24 h when incubated with liver microsomes” value (from here on “% degradation … with liver microsomes”) stood at 35%. Moreover, in data set [4], the “% degradation of peptides in 24 h when incubated with simulated gastric fluid” value (“% degradation … with simulated gastric fluid” below) is listed as 00% and the half-life was more than 24 h.

As to `CCCC[C@H](NC(=O)[C@](C)(Cc1c(F)cccc1F)NC(=O)[C@H](CCC(N)=O)NC(=O)[C@@H](NC(=O)[C@H](CCC(=O)O)NC(=O)C(C)(C)NC(=O)[C@@H](NC(=O)C(C)(C)N)C(C)C)[C@@H](C)CC)C(=O)N[C@@H](Cc1c[nH]cn1)C(=O)N[C@@H](CCC(N)=O)C(=O)NC(C)(C)C(=O)NC(C)(C)C(=O)N[C@@H](CCCNC(N)=O)C(=O)N[C@@](C)(Cc1c(F)cccc1F)C(N)=O` [Seq. ID. 550] (H-[Aib]V[Aib]EIQ[αMePhe(2,6-F2)][Nle]HQ[Aib][Aib][Cit][αMePhe(2,6-F2)]-NH2), in data set [1], the “half-life (t1/2) in simulated intestinal fluid” value is on record as “(6) h” and the “% degradation … with simulated intestinal fluid” value is 50%. Moreover, in data set [2], the half-life came out at 8 h and the metabolised at 24 h, 2 μM was found to be 80%. Also, in data set [3], the half-life was 1 h and the “% degradation … with liver microsomes” value was determined as 82%. In addition, in data set [4], the “% degradation … with simulated gastric fluid” value is listed as 13% and the “half-life (t1/2) in simulated gastric fluid” value is listed as “(8) h”.

For the molecule `CCCC[C@H](NC(=O)C(C)(Cc1c(F)cccc1F)NC(=O)[C@H](CCC(N)=O)NC(=O)[C@@H](NC(=O)[C@H](CCC(=O)O)NC(=O)C1(NC(=O)[C@@H](NC(=O)C2(N)CCCC2)C(C)C)CCCC1)[C@@H](C)CC)C(=O)N[C@@H](Cc1c[nH]cn1)C(=O)N[C@@H](CCC(N)=O)C(=O)N[C@@H](CCCCNC(=N)N)C(=O)N1CCCC1(C)C(=O)N[C@@H](CCCCN)C(=O)NC(C)(Cc1ccccc1)C(N)=O` (stereo partly drawn) [Seq. ID. 46] (H-[Ac5c]V[Ac5c]EIQ[ξαMePhe(2,6-F2)][Nle]HQ[hArg][ξαMeP]K[ξαMeF]-NH2), in data set [1], the half-life is more than 24 h and the “% degradation … with simulated intestinal fluid” value was 00%. Also, in data set [2], the half-life is more than 24 h and the metabolised at 24 h, 2 μM was found to be 0%. In data set [3], the “half-life (t1/2) in liver microsomes” value is given as “(5) h” and the “% degradation … with liver microsomes” value turned out to be 31%. In data set [4], the “% degradation … with simulated gastric fluid” value is 00% and the half-life is more than 24 h.

In the case of `CCCC[C@H](NC(=O)C(C)(Cc1c(F)cccc1F)NC(=O)[C@H](CCC(N)=O)NC(=O)[C@@H](NC(=O)[C@H](CCC(=O)O)NC(=O)C(C)(C)NC(=O)[C@@H](NC(=O)C1(N)CCCC1)C(C)C)[C@@H](C)CC)C(=O)N[C@@H](Cc1c[nH]cn1)C(=O)N[C@@H](CCC(N)=O)C(=O)N[C@@H](CCCCNC(=N)N)C(=O)N[C@@H](C)C(=O)N[C@@H](CCCNC(=N)N)C(=O)NC(Cc1ccc(-c2ccc(OC)cc2CC)cc1)C(=O)N[C@@H](CCCc1ccccc1)C(N)=O` (stereo partly drawn) [Seq. ID. 811] (H-[Ac5c]V[Aib]EIQ[ξαMePhe(2,6-F2)][Nle]HQ[hArg]AR[ξBip(2'-Et-4'-OMe)][hhPhe]-NH2), in data set [1], the half-life was more than 24 h and the “% degradation … with simulated intestinal fluid” value was 00%. In data set [2], this molecule registered a half-life of more than 24 h and a metabolised at 24 h, 2 μM of 0%. Besides, in data set [3], the half-life was determined as 2 h and the “% degradation … with liver microsomes” value is on record as 81%. Further, in data set [4], the “% degradation … with simulated gastric fluid” value is on record as 52% and the half-life is 4 h.

Consider `CCCCC(C)(NC(=O)[C@H](CC(C)C)NC(=O)[C@H](CCC(N)=O)NC(=O)[C@@H](NC(=O)[C@H](CCC(=O)O)NC(=O)C(C)(C)NC(=O)[C@@H](NC(=O)C1(NC(=O)[C@@H](N)C(C)C)CCCC1)C(C)C)[C@@H](C)CC)C(=O)N[C@@H](Cc1c[nH]cn1)C(=O)N[C@@H](CCC(N)=O)C(=O)N[C@@H](CCCCNC(=N)N)C(=O)N[C@@H](C)C(=O)N[C@@H](CCCCNC(=N)N)C(=O)NC(Cc1ccc(-c2ccc(OC)cc2CC)cc1)C(=O)NC(C)(CCCc1ccccc1)C(N)=O` (single isomer, unassigned) [Seq. ID. 925], for which, in data set [1], the half-life is 0.5 h and the “% degradation … with simulated intestinal fluid” value was 100%. Further, in data set [2], the “half-life (t1/2) in human plasma” value is reported as “(9) h” and the metabolised at 24 h, 2 μM stood at 78%. In addition, in data set [3], the half-life came out at 0.5 h and the “% degradation … with liver microsomes” value amounted to 100%. In addition, in data set [4], the “% degradation … with simulated gastric fluid” value is reported as 100% and the half-life was 0.5 h.

On to `CCc1cc(OC)ccc1-c1ccc(CC(NC(=O)[C@H](CCCCNC(=N)N)NC(=O)[C@H](C)NC(=O)[C@H](CCCCNC(=N)N)NC(=O)[C@H](CCC(N)=O)NC(=O)[C@H](Cc2c[nH]cn2)NC(=O)C(C)(CCSC)NC(=O)[C@H](CC(C)C)NC(=O)[C@H](CCC(N)=O)NC(=O)[C@@H](NC(=O)[C@H](CCC(=O)O)NC(=O)C(C)(C)NC(=O)[C@@H](NC(=O)C(C)(C)NC(=O)[C@@H](N)C(C)C)C(C)C)[C@@H](C)CC)C(=O)NC(C)(CCCc2ccccc2)C(N)=O)cc1` (stereo partly drawn) [Seq. ID. 920] (H-V[Aib]V[Aib]EIQL[ξαMeM]HQ[hArg]A[hArg][ξBip(2'-Et-4'-OMe)][ξαMe(hhPhe)]-NH2), for which, in data set [1], the half-life is more than 24 h and the “% degradation … with simulated intestinal fluid” value was 00%. For the same molecule, in data set [2], the half-life was more than 24 h and the metabolised at 24 h, 2 μM turned out to be 0%. Also, in data set [3], the “half-life (t1/2) in liver microsomes” value is “(5) h” and the “% degradation … with liver microsomes” value came to 35%. In data set [4], the “% degradation … with simulated gastric fluid” value is recorded as 00% and the half-life was more than 24 h.

As to `CC[C@H](C)[C@H](NC(=O)[C@H](CCC(=O)O)NC(=O)C(C)(C)NC(=O)[C@@H](NC(=O)C1(NC(=O)[C@@H](N)C(C)C)CCCC1)C(C)C)C(=O)N[C@@H](CCC(N)=O)C(=O)N[C@@H](CC(C)C)C(=O)NC(C)(CCSC)C(=O)N[C@@H](Cc1c[nH]cn1)C(=O)N[C@@H](CCC(N)=O)C(=O)N[C@@H](CCCCNC(=N)N)C(=O)N[C@@H](C)C(=O)N[C@@H](CCCCNC(=N)N)C(=O)NC(C)(Cc1ccccc1F)C(=O)NC(C)(CCCc1ccccc1)C(N)=O` (stereo partly drawn) [Seq. ID. 936] (H-V[Ac5c]V[Aib]EIQL[ξαMeM]HQ[hArg]A[hArg][ξαMePhe(2-F)][ξαMe(hhPhe)]-NH2), in data set [1], the half-life is more than 24 h and the “% degradation … with simulated intestinal fluid” value is 00%. Besides, in data set [2], the half-life was more than 24 h and the metabolised at 24 h, 2 μM worked out at 0%. Moreover, in data set [3], the half-life is 2 h and the “% degradation … with liver microsomes” value came out at 81%. In data set [4], the “% degradation … with simulated gastric fluid” value is recorded as 52% and the half-life was 4 h.

With `CCCC[C@H](NC(=O)C(C)(Cc1c(F)cccc1F)NC(=O)[C@H](CCC(N)=O)NC(=O)[C@@H](NC(=O)[C@H](CCC(=O)O)NC(=O)C(C)(C)NC(=O)[C@@H](NC(=O)C(C)(C)N)C(C)C)[C@@H](C)CC)C(=O)N[C@@H](Cc1c[nH]cn1)C(=O)N[C@@H](CCC(N)=O)C(=O)N[C@@H](CCCN)C(=O)NC(C)(C)C(=O)NC(C)(Cc1c(F)cccc1F)C(=O)NC(Cc1ccc(-c2ccc(OC)cc2CC)cc1)C(=O)N[C@@H](CCCc1ccccc1)C(N)=O` (stereo partly drawn) [Seq. ID. 840] (H-[Aib]V[Aib]EIQ[ξαMePhe(2,6-F2)][Nle]HQ[Orn][Aib][ξαMePhe(2,6-F2)][ξBip(2'-Et-4'-OMe)][hhPhe]-NH2), in data set [1], the half-life is more than 24 h and the “% degradation … with simulated intestinal fluid” value was 00%. Also, in data set [2], the half-life is more than 24 h and the metabolised at 24 h, 2 μM amounted to 0%. Also, in data set [3], the “half-life (t1/2) in liver microsomes” value is given as “(5) h” and the “% degradation … with liver microsomes” value is on record as 33%. In data set [4], the “% degradation … with simulated gastric fluid” value is recorded as 00% and the half-life was more than 24 h.

Turning to `CCCC[C@H](NC(=O)C(C)(Cc1ccccc1F)NC(=O)[C@H](CCC(N)=O)NC(=O)[C@@H](NC(=O)[C@H](CCC(=O)O)NC(=O)C(C)(C)NC(=O)[C@@H](NC(=O)C(C)(C)N)C(C)C)[C@@H](C)CC)C(=O)N[C@@H](Cc1c[nH]cn1)C(=O)N[C@@H](CCC(N)=O)C(=O)N[C@@H](CCCCNC(=N)N)C(=O)N1CCCC1(C)C(=O)N[C@@H](CCCCN)C(=O)NC(C)(Cc1ccccc1)C(N)=O` (stereo partly drawn) [Seq. ID. 25] (H-[Aib]V[Aib]EIQ[ξαMePhe(2-F)][Nle]HQ[hArg][ξαMeP]K[ξαMeF]-NH2), in data set [1], the “half-life (t1/2) in simulated intestinal fluid” value was “(6) h” and the “% degradation … with simulated intestinal fluid” value is 46%. In data set [2], this molecule gave a half-life of 8 h and a metabolised at 24 h, 2 μM of 75%. Further, in data set [3], the half-life amounted to 1 h and the “% degradation … with liver microsomes” value is recorded as 83%. Further, in data set [4], the “% degradation … with simulated gastric fluid” value was 12% and the “half-life (t1/2) in simulated gastric fluid” value is “(8) h”.

Values taken from patent US8383581B2, “Short-chain peptides as parathyroid hormone (PTH) receptor agonist” (Cadila Healthcare Limited, priority 2009, dated 2013).
